Results on 88 compounds are retold here after a melting point compilation (Tetko et al.; mined from patent text by program, amines drawn as free bases though some values may be those of a salt).

Each structure is given as a SMILES string.

The term melting point denotes the temperature, or range, at which the solid turns liquid.

As to `CC(C)(C)C(=O)OCN1C(=O)CN(CCN2CC(=O)N(COC(=O)C(C)(C)C)C(=O)C2)CC1=O`, the melting point was in the range of 114 to 118 °C. In turn, `CCOc1cc(NC(=O)CCC(=O)c2ccc(OCC)c(OCC)c2)nc(-c2ccccc2)c1` gave a melting point of 172 to 173 °C. Then `O=C1Cc2ccccc2C(c2ccccc2)CN1` (stereo not drawn), with 154 to 155 °C; and `CC(C)(CCc1nnn[nH]1)c1ccc(C(=O)Nc2cn3cc(-n4ccnc4)ccc3n2)cc1`, with 266 to 267 °C. The result for `COC(=O)CC(c1ccc(F)cc1)C(C#N)C(=O)OC` (stereo not drawn) reads 80.2 °C; that for `CCN1C(=O)C(C)(C)c2cc(-c3nc4ccccc4[nH]3)ccc21`, 263 to 265 °C; that for `Cc1c(SCCN2CCOCC2)ccnc1CSc1nc2ccccc2[nH]1`, 201 to 203 °C.

The compound `Cc1oc(-c2ccccc2)nc1COc1ccc(COc2nn(Cc3ccccc3)cc2CCC(=O)O)cc1` showed a melting point of 125 to 126 °C. Then `O=C1c2ccccc2C(=O)N1CC#CCSc1nccc(NC(=S)NCC(F)(F)F)n1`, with 124 to 127 °C; and `O=C(O)c1ccccc1C(=O)Nc1cccc(-c2ccnc3c(C(=O)c4cccs4)cnn23)c1`, with 215 to 216 °C. Then `CCOCc1nnc(C)n1-c1ccc(Cl)cc1C(=O)O`, with 173 to 176 °C; and `CSC(C(=O)O)c1ccsc1` (stereo not drawn), with 73.5 to 74 °C; and `Cc1ccc(NC(=O)C(=O)N2CCC(Cc3ccc(F)cc3)CC2)cc1`, with 125 to 126 °C. Then `CN(C)CCCOc1ccc(C(=O)NN)nc1`, with 82 to 83 °C; and `O=c1c2ccccc2ncn1C1CCN(CCC(CC(F)(F)F)c2ccccc2)CC1` (stereo not drawn), with 128 to 129 °C. Consider `CC(C)N(CCNc1ccc([N+](=O)[O-])c2ccccc12)C(C)C`, for which the melting point fell in the range of 63 to 64 °C. `NC(=O)c1ccc(-c2ccc3nnn(Cc4ccc5ncccc5c4)c3n2)cc1` returned a melting point of 229 to 231 °C.

The compound `NNC(=O)Cc1cccc(Cl)n1` returned a melting point of 220 to 225 °C. Then `CCc1cc2c3c(cc(C)c2[nH]c1=O)CC(C)(CN=[N+]=[N-])O3` (stereo not drawn), with 211 to 212 °C.

The compound `CNC(=O)c1c(NC(=O)CBr)c(OC)c(C(=O)NC)c(NC(=O)CBr)c1OC` yielded a melting point of 308 to 310 °C. Then `Cc1cc(Br)ccc1NC(=O)CC(=O)NCCO`, with 139 to 142 °C; and `Cc1cc(N(C)Cc2oc(-c3ccc(C(F)(F)F)cc3)nc2C)cc(C)c1OCC(=O)O`, with 122 to 123 °C; and `C#CC(C)(C)OC(=O)Nc1ccc(-c2ncn(-c3ccc(OC(F)(F)F)cc3)n2)cc1`, with 164 to 165 °C.

Turning to `COc1ccc(-c2nc3n(c2-c2ccncc2)CCS3=O)cc1` (stereo not drawn), the melting point was in the range of 165 to 170 °C. The result for `C=CCNC(=O)C1CCc2cc(-c3ccccc3)ccc2O1` (stereo not drawn) reads 123 to 124 °C. The result for `COC(=O)Cc1cn(C2CCCCC2)nc1O` reads 135 to 136 °C. The result for `COc1cc2c(cc1OCc1ccccc1)C(C#N)(Sc1ccc(Cl)cc1)C2` (stereo not drawn) reads 114 to 115 °C; that for `NC(=O)c1c(F)cccc1C(=O)O`, 129 to 132 °C. Turning to `CN1CCN(C(=O)COc2cc(-c3ccccc3)nc3ccccc23)CC1=O`, the melting point was 140 °C. Take `COc1ccc(N2CCOCC2)c2sc(-c3nc4ccc(N(C)C)nc4[nH]3)nc12`: the melting point is 120 to 130 °C.

The compound `CN1CCN(c2cc(Cl)cc3c2c(=O)n(CCc2ccccc2)c(=O)n3Cc2ccccc2)CC1` displayed a melting point of 136 to 138 °C.

Turning to `Cc1c(N2CCC(C)(NC(=O)OC(C)(C)C)C2)c(F)c(N)c2c(=O)c(C(=O)O)cn(C3CC3)c12` (stereo not drawn), the melting point amounted to 214 °C.

`CN1CCN(CCCn2c(NC(=O)c3ccc(Cl)c(Cl)c3)nc3ccccc32)CC1` registered a melting point of 166 to 168 °C.

Consider `CONC(=O)NC1CCCc2ccccc21` (stereo not drawn), for which the melting point is 122 to 125 °C. As to `O=C(C=Cc1ccc2c(c1)OCO2)C1CC1`, the melting point lay within 85 to 87 °C. The result for `CNC(=O)c1ccccc1-c1cc(C)no1` reads 120 to 122 °C; that for `O=C(O)c1cccc(Oc2ccnc(Cl)c2)n1`, 183 °C; that for `CC1(C)CC(=O)SC(=NCCCCN2CCN(c3ncccn3)CC2)N1`, 148 °C. Then `Cc1cc(-c2cc(C(F)F)n3nccc3n2)ccc1Cl`, with 107 °C; and `CC(C)=CCCC(C)=CCNC(=O)Nc1ccccc1CCc1cc(C(C)(C)C)c(O)c(C(C)(C)C)c1`, with 87 to 87.5 °C. The result for `Oc1cc(I)c(I)cc1O` reads 116 °C. Regarding `CC(C)NC(=S)NS(=O)(=O)c1ccc(S(C)(=O)=O)cc1N`, the melting point is 151 to 153 °C. The result for `COc1cc(C)cc(OC)c1N(CC1CCCCC1)C(=O)CNC(=O)c1cc2ccccc2n1CCC(=O)O` reads 110 °C. The result for `CC1(C)CCC(C)(C)c2cc(C=C=Cc3ccc(C(=O)O)cc3)ccc21` reads 227 to 228 °C. Then `Brc1ccc2c(c1)c1cc(Br)ccc1n2-c1ccccc1`, with 163 to 164 °C; and `CC(=O)OCC(C(OC(C)=O)c1ccc([N+](=O)[O-])cc1)[N+](=O)[O-]` (stereo not drawn), with 63 to 66 °C; and `CS(=O)(=O)c1ccc(-c2cc(C#N)c(=O)[nH]c2-c2ccc(F)cc2)cc1`, with 294 to 296 °C. For the compound `CCNC(=O)c1ccc(C=C2CC3CCC(C2)N3CCC(C(=O)N(C)C)(c2ccccc2)c2ccccc2)cc1`, the melting point lay in the range of 137 to 139 °C. The result for `COCc1ccc(CC(C)NCC(O)c2ccc(O)c(CO)c2)cc1` (stereo not drawn) reads 81 to 92 °C; that for `O=C(O)c1cn(C2CC2)c2nc(N3Cc4ccccc4C3)c(F)cc2c1=O`, over 300 °C.

Regarding `Nc1cc(Br)c([N+](=O)[O-])cc1Br`, the melting point was 178 °C.

`Cc1cc(C)c2cccc(OCc3c(Cl)ccc(S(=O)(=O)N4CCC[C@H]4C(=O)NCCCN(C)C(=O)c4ccc(C=NN)cc4)c3Cl)c2n1` gave a melting point of 158 °C. The result for `CCOC(=O)c1cc2c(Cl)ccc3c2n1CCCC=C3` reads 89 to 90 °C. The result for `Clc1ccc(-c2c(-c3ccncc3)nc(-c3c(Cl)cccc3Cl)n2C2CC2)cc1` reads 210 to 211 °C; that for `OCCCN1CCN2c3ccccc3Cc3ccccc3C2C1` (stereo not drawn), 127 to 128 °C; that for `O=C1CCCc2nc3ccccc3c(NCc3ccccc3C(F)(F)F)c21`, 167 °C. Then `CCOC(=O)c1nc(-c2ccc(Cl)cc2F)cc(N)c1OCC(F)(F)F`, with 123 to 135 °C; and `Cc1cn(COCOC(=O)c2ccccc2)c(=O)[nH]c1=O`, with 141 to 143 °C. Regarding `CCC(CC)N(O)C(=O)Nc1ccc([N+](=O)[O-])cc1`, the melting point lay within 169 to 170 °C. The result for `CCC[C@H](NC(=O)Cc1cc(F)cc(F)c1)C(=O)Nc1ncc(-c2ccc(OC)cc2COC(C)C)s1` reads 73.9 °C; that for `COc1ccc(C(=O)Nc2c(Cl)cncc2Cl)c2c1[nH]c1ccc(Cl)cc12`, over 359 °C; that for `CC(N1CCN(C=O)CC1)C(O)(Cn1cncn1)c1ccc(F)cc1F` (stereo not drawn), 118 to 120 °C.

Compound `CN(C)Cc1nc(-c2ccccc2)cn1Cc1ccccc1` yielded a melting point of 78 to 80 °C. `O=C(Nc1ccc(-n2nc(C(F)(F)F)cc2C2CC2)c(F)c1)c1cccc(F)c1F` yielded a melting point of 132 to 135 °C. The result for `CCCCCC(=O)Nc1ccc(NNC(=O)N(C)c2cccc3c2C(=O)N(C)C3=O)cc1` reads 115 to 118 °C; that for `c1ccc(COc2ccc3nc(-c4ccc(OCc5ccccc5)c(C56CC7CC(CC(C7)C5)C6)c4)[nH]c3c2)cc1`, 265 to 275 °C. Then `O=CNNc1ccc(NS(=O)(=O)c2cccc([N+](=O)[O-])c2)cc1`, with 188 to 191 °C; and `CCc1cc(CSCCNC(=C[N+](=O)[O-])NC)oc1CN(C)C`, with 91 °C. `CCOC(=O)c1ccc(NC(=O)C=Cc2ccc(OC)cc2)cc1` returned a melting point of 163 to 166 °C.

Compound `CC(=O)c1nc(-c2ccncc2)[nH]c1C` displayed a melting point of 181 to 183 °C. Then `O=C1N=Nc2ccncc21`, with over 350 °C; and `CCn1ncc2c1ncc1c(=O)n(C)c3ncnn3c12`, with 208 to 210 °C. The result for `COC(=O)c1sccc1NC(=O)OC(C)(C)C` reads 88 to 89 °C; that for `O=C(c1cc(Cl)ccc1NC(c1ccccc1)(c1ccccc1)c1ccccc1)C(F)(F)F`, 165 to 167 °C.

`CCOC(=O)c1cn(C(C)(C)C)c2nc(NC(=O)c3ccc(C)cc3)sc12` displayed a melting point of 200 to 201 °C.

Take `COC1C2=C3C(=CN1OC)OCCC3CC(C(C)=O)C2` (stereo not drawn): the melting point fell in the range of 100 to 102 °C. `O=c1[nH]c2ccccc2c(=O)n1CCOCCO` displayed a melting point of 149 to 151 °C. The result for `CN1CC(C(=O)NC2NCCS2)CC2c3ccc(C(C)(C)C)c4[nH]cc(c34)CC21` (stereo not drawn) reads 243 to 247 °C; that for `CC(=O)Nc1c2oc3cc(Cl)ccc3c2nn1C`, 290 to 300 °C; that for `CCc1ccc(Cn2c(C)nc3ccc(C(=O)OC)nc32)c(Cl)c1`, 172 to 173 °C.

Consider `CCCCc1nn(-c2ccccc2C(F)(F)F)c(=O)n1Cc1ccc(-c2ccccc2S(=O)(=O)NC(=O)C(F)(F)F)cc1`, for which the melting point was in the range of 125 to 127 °C.

`CC(C)c1ccc(CCCC(=O)O)cc1` displayed a melting point of 50 to 51 °C. The result for `COc1ccc(-c2cc(=O)[nH]nc2-c2ccc(OC)c(F)c2)cc1F` reads 205 to 206 °C; that for `CC(C)(CNc1ccc(C2=NNC(=O)CC2)cc1)[N+](=O)[O-]`, 220 to 222 °C.

Take `COc1ccc(-c2cc3ccccc3[nH]2)cc1NC(=S)Nc1cccc(CC(=O)O)c1`: the melting point is 174 to 175 °C. The result for `Nc1ccc(OC2=CC=CN(Oc3ccc(N)cc3)C2)cc1` reads 152 to 154 °C. Then `CCN(c1ccc2c(c1)OCO2)c1nc(=O)c2cccnc2s1`, with 184 to 185 °C. Then `N#Cc1ccc(C=Cc2cc(=O)c3cc(Br)ccc3o2)cc1`, with 275 to 276 °C.
